Results from patent US11352345B2, “Cyclohexyl acid pyrazole azoles as LPA antagonists” (BRISTOL-MYERS SQUIBB COMPANY, priority 2017, dated 2022).
Counter-ions that a name gives are not always drawn.

biological target: T1, human LPA1 (Homo sapiens, UniProt Q92633); assay: LPA1 functional antagonist assay (calcium flux); type: cell-based; conditions: Chinese hamster ovary cells overexpressing human LPA1; calcium flux induced by 10 nM LPA; read-out: hLPA1 IC50
T1 construct: expressed in transfected cells; host or cells: Chinese hamster ovary (CHO) cells
Procedure: The effectiveness of compounds of the present invention as LPA1 inhibitors can be determined in an LPA1 functional antagonist assay as follows:
Chinese hamster ovary cells overexpressing human LPA1 were plated overnight (15,000 cells/well) in poly-D-lysine coated 384-well microplates (Greiner bio-one, Cat #781946) in DMEM/F12 medium (Gibco, Cat #11039). Following overnight culture, cells were loaded with calcium indicator dye (AAT Bioquest Inc, Cat #34601) for 30 minutes at 37° C. The cells were then equilibrated to room temperature for 30 minutes before the assay. Test compounds solubilized in DMSO were transferred to 384 well non-binding surface plates (Corning, Cat #3575) using the Labcyte Echo acoustic dispense and diluted with assay buffer [1×HBSS with calcium/magnesium (Gibco Cat #14025-092), 20 mM HEPES (Gibco Cat #15630-080) and 0.1% fatty acid free BSA (Sigma Cat #A9205)] to a final concentration of 0.5% DMSO. Diluted compounds were added to the cells by FDSS6000 (Hamamatsu) at final concentrations ranging from 0.08 nM to 5 μM. and were then incubated for 20 min at room temperature at which time LPA (Avanti Polar Lipids Cat #857130C) was added at final concentrations of 10 nM to stimulate the cells.
The compound IC50 value was defined as the concentration of test compound which inhibited 50% of the calcium flux induced by LPA alone. IC50 values were determined by fitting data to a 4-parameter logistic equation (GraphPad Prism, San Diego Calif.).

T1 sequence (Q92633 whole entry): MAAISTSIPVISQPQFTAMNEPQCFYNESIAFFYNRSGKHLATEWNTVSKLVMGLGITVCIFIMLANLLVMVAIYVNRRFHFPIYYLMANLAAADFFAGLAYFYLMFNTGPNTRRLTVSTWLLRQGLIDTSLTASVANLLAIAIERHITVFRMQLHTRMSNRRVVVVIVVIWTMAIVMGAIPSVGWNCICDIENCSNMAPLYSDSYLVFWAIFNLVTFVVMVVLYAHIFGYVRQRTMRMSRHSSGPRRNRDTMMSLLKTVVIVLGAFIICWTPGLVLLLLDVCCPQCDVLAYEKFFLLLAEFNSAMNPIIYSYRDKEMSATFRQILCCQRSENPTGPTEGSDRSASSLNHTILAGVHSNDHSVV

SMILES | IC50
Cc1nc(-c2cnn(C)c2CNc2cnn(-c3ccccc3)n2)ncc1O[C@H]1CCC[C@H](C(=O)O)C1 [Example 1, (1S,3S)-3-((4-methyl-2-(1-methyl-5-(((2-phenyl-2H-1,2,3-triazol-4-yl)amino)methyl)-1H-pyrazol-4-yl)pyrimidin-5-yl)oxy)cyclohexane-1-carboxylicacid] | 35 nM
Cc1nc(-c2cnn(C)c2CNc2nc(C(C)C)ns2)ncc1O[C@H]1CCC[C@H](C(=O)O)C1 [Example 2, (1S,3S)-3-((2-(5-(((3-isopropyl-1,2,4-thiadiazol-5-yl)amino)methyl)-1-methyl-1H-pyrazol-4-yl)-4-methylpyrimidin-5-yl)oxy)cyclohexane-1-carboxylic acid] | 1860 nM
CCCc1nsc(Nc2c(-c3ncc(O[C@H]4CCC[C@H](C(=O)O)C4)c(C)n3)cnn2C)n1 [Example 3, (1S,3S)-3-((4-methyl-2-(1-methyl-5-((3-propyl-1,2,4-thiadiazol-5-yl)amino)-1H-pyrazol-4-yl)pyrimidin-5-yl)oxy)cyclohexane-1-carboxylic acid] | 437 nM
Cc1nc(-c2cnn(C)c2CNc2noc(CCC(C)C)n2)ncc1O[C@H]1CCC[C@H](C(=O)O)C1 [Example 4, (1S,3S)-3-((2-(5-(((5-isopentyl-1,2,4-oxadiazol-3-yl)amino)methyl)-1-methyl-1H-pyrazol-4-yl)-4-methylpyrimidin-5-yl)oxy)cyclohexane-1-carboxylic acid, bis TFA salt] | 10 nM
Cc1nc(-c2cnn(C)c2Nc2nc(C3CC3)ns2)ncc1O[C@H]1CCC[C@H](C(=O)O)C1 [Example 5] | 341 nM
CCCCc1nc(NCc2c(-c3ncc(O[C@H]4CCC[C@H](C(=O)O)C4)c(C)n3)cnn2C)no1 [Example 6] | 31 nM
Cc1nc(-c2cnn(C)c2CNc2noc(CC3CCC3)n2)ncc1O[C@H]1CCC[C@H](C(=O)O)C1 [Example 7] | 9 nM
Cc1nc(-c2cnn(C)c2CNc2ncn(-c3ccccc3)n2)ncc1O[C@H]1CCC[C@H](C(=O)O)C1 [Example 8] | 91 nM
Cc1nc(-c2cnn(C)c2Cn2cc(CC3CC3)nn2)ncc1O[C@H]1CCC[C@H](C(=O)O)C1 [Example 9, (1S,3S)-3-((2-(5-((4-(cyclopropylmethyl)-1H-1,2,3-triazol-1-yl)methyl)-1-methyl-1H-pyrazol-4-yl)-4-methylpyrimidin-5-yl)oxy)cyclohexane-1-carboxylic acid] | 636 nM
CCc1nc(-c2cnn(C)c2Cn2cc(Cc3ccccc3)nn2)ncc1O[C@H]1CCC[C@H](C(=O)O)C1 [Example 10] | 26 nM
CCCCc1cn(Cc2c(-c3ncc(O[C@H]4CCC[C@H](C(=O)O)C4)c(CC)n3)cnn2C)nn1 [Example 11] | 399 nM
CCc1nc(-c2cnn(C)c2Cn2cc(CC3CC3)nn2)ncc1O[C@H]1CCC[C@H](C(=O)O)C1 [Example 12] | 230 nM
